One assay concerns SC-115 cells. The assay can be described thus: Growth inhibiting effect in testosterone-added system using SC-115 cells (tritium-labeled thymidine uptake). The format is cell-based. As for the experimental part: Uptake of tritium-labeled thymidine was examined in a serum free culture system using testosterone-dependent SC-115 cells. Strong inhibitory effects of the conjugate and the estradiol derivatives were shown.
The SC-115 cells were cultured on a 96-well microplate (5,000 cells/well) for 24 hours with a culture medium (200 μl/well; Ham's F-12/MEM-E (98% ), dextran-treated fetal calf serum (2%) and testosterone (1×10^-8 M)). The culture medium was replaced with fresh medium containing the test compound (Ham's F-12/MEM-E, bovine serum albumin (0.1%), testosterone (1×10^-8 M) and test compound of various concentrations). The culture medium was replaced every two days, and culture was continued for 7 days. Thymidine (1 μci/ml, tritium-labeled)was added, and 5 hours later, the culture medium was removed. The cells were washed with PBS and then washed twice with ice-cold trichloroacetic acid (10%). Then the cells were dissolved in 0.5N sodium hydroxide and neutralized with 0.5N hydrochloric acid. The radioactivity of the neutralized solution was measured by a liquid scintillation counter to determine the growth inhibiting effect (IC50).

A further assay concerns uterus. The assay can be described thus: Estrogen action (uterine weight tests). The format is in vivo. The conditions noted are these: once hypodermically, 3-week-old Wistar female rats, 24 hours; higher = weaker estrogen action. On the procedure: The estrogen action of the conjugate and the estradiol derivative were each examined according to the uterine weight tests. The estrogen action was found diminished.
The test compounds and estradiol dissolved in sesame oil (containing 3% benzyl alcohol) were each administered once hypodermically to 3-week-old Wistar female rats. 24 hours later, the uterus of each test rat was removed and its weight (ratio to the body weight) was measured. From the relation between the uterus weight/body weight ratio and the dosage, the compound dosage that gives a uterus weight/body weight ratio twice that in the control group was determined. The dosages of the test compounds are shown as a ratio to the dosage of estradiol. 3-Benzoyloxy-1,3,5(10)-estratriene-17β-[4-[p-[bis (2-chloroethyl)amino]phenyl]-butyryloxy]acetate was used as a comparative compound.

In a further assay the test system is DU-145 cells. The assay can be described thus: Growth inhibiting effect in bFGF-added system using DU-145 cells (tritium-labeled thymidine uptake). The format is cell-based. On the procedure:
Uptake of tritium-labeled thymidine was examined in a serum free culture system using bFGF-dependent DU-145 cells. Strong inhibitory effects of the conjugate and the estradiol derivative were shown.
The DU-145 cells were cultured on a 96-well microplate (5,000 cells/well) for 24 hours with a culture medium (200 μl/well; Ham's F-12/MEM-E (98%) and dextran-treated fetal calf serum (2%)). Then the culture medium was replaced with fresh medium containing the test compound (Ham's F-12/MEM-E, bovine serum albumin (0.1%), bovine pituitary-derived bFGF (1 ng/ml) and the test compound of various concentrations). Culture with this medium was continued for 4 days. Thymidine (1 μci/ml, tritium-labeled) was added, and 5 hours layer, the culture medium was removed. The cells were washed with PBS and then washed twice with ice-cold trichloroacetic acid (10%). Then the cells were dissolved in 0.5N sodium hydroxide and neutralized with 0.5N hydrochloric acid. The radioactivity of the neutralized solution was measured by a liquid scintillation counter to determine the growth inhibiting effect (IC50).

The mark [1] stands for this setting: SC-115 cells, testosterone 1×10^-8 M, 7 days, read-out: IC50.
Where [2] appears, read: DU-145 cells, bFGF 1 ng/ml, 4 days, read-out: IC50.
Setting [3] is: 168 h, SC-115 cells, testosterone 1×10^-8 M, 7 days, read-out: IC50.

These results are taken from patent US5478818A, “Estradiol derivative-alkylating agent conjugate with reduced hormonal activity, process for preparing the same, compounds useful for the preparation thereof, and growth inhibiting composition containing the conjugate or estradiol derivative” (priority 1993, dated 1995).

Where two headings read alike, the source gives them in different places.

The IC50 is the concentration at which inhibition is half-maximal. For “1-[3-benzoyloxy-1,3,5(10)-estratriene-1-methyl-17β-oxy]-2-[4-[p-[bis(2-hydroxyethyl)amino]phenyl]-butoxy]ethane [Compound I-3]”, the IC50 in the assay on SC-115 cells (setting [1]) worked out at 200 nM; in the assay on DU-145 cells (setting [2]) it was 9200 nM. Moreover, the “Dosage that gives a uterus wt/body wt ratio twice that in control group (ratio to estradiol dosage)” value in the assay with uterus is > 7000 ratio to estradiol dosage.
In the case of `C[C@]12CC[C@@H]3c4ccc(OC(=O)c5ccccc5)cc4CC[C@H]3[C@@H]1CC[C@@H]2OC(=O)COC(=O)CCCc1ccc(N(CCCl)CCCl)cc1` [Comparative compound, 3-Benzoyloxy-1,3,5(10)-estratriene-17β-[4-[p-[bis (2-chloroethyl)amino]phenyl]-butyryloxy]acetate, reference compound], the IC50 was 2600 nM in the assay on SC-115 cells (168 h) and more than 10000 nM with DU-145 cells (Homo sapiens, DU-145, 96 h, read-out: IC50 (ND*: no inhibiting action observed)). Further, the “Dosage that gives a uterus wt/body wt ratio twice that in control group (ratio to estradiol dosage)” value in the assay with uterus was 200 ratio to estradiol dosage.
As for `C[C@]12CC[C@@H]3c4ccc(OCc5ccccc5)cc4CC[C@H]3[C@@H]1CC[C@@H]2OCCOCCCCc1ccc(N(CCCl)CCCl)cc1` [Compound I-1, 1-[3-benzyloxy-1,3,5(10) -estratriene-17β-oxy]-2-[4-[p-[bis (2-chloroethyl)amino]phenyl]butoxy]ethane], the half-inhibitory concentration (IC50) with SC-115 cells (setting [1]) came to 1200 nM; in the assay on DU-145 cells (setting [2]), 4600 nM. In addition, the “Dosage that gives a uterus wt/body wt ratio twice that in control group (ratio to estradiol dosage)” value with uterus is > 7000 ratio to estradiol dosage.
On the same counts, the results for `C[C@]12CC[C@@H]3c4ccc(OC(=O)c5ccccc5)cc4CC[C@H]3[C@@H]1CC[C@@H]2OCCOCCCCc1ccc(N(CCCl)CCCl)cc1` [Compound I-2, 1-[3-benzoyloxy-1,3,5(10)-estratriene-17β-oxy]-2-[4-[p-[bis (2-chloroethyl)amino]phenyl]butoxy]ethane] are 1300 nM, 7800 nM and > 7000 ratio to estradiol dosage.
`C[C@]12CC[C@@H]3c4ccc(OC(=O)c5ccccc5)cc4CC[C@H]3[C@@H]1CC[C@@H]2OCCOCCCCc1ccc(N(CCO)CCO)cc1` [Compound I-4]: in the assay with SC-115 cells (setting [1]), the IC50 is 800 nM. Also, the “Dosage that gives a uterus wt/body wt ratio twice that in control group (ratio to estradiol dosage)” value in the assay with uterus is 1400 ratio to estradiol dosage.
For `C[C@]12CC[C@@H]3c4ccc(OCc5ccccc5)cc4CC[C@H]3[C@@H]1CC[C@@H]2OCCOC(=O)CCCc1ccc(N(CCCl)CCCl)cc1` [Compound I-5, 1-[3-benzyloxy-1,3,5(10)-estratriene-17β-oxy]-2-[4-[p-[bis(2-chloroethyl)amino]phenyl]-butyryloxy]ethane], the IC50 in the assay on SC-115 cells (setting [1]) turned out to be 500 nM. In the assay with uterus, the “Dosage that gives a uterus wt/body wt ratio twice that in control group (ratio to estradiol dosage)” value is recorded as > 7000 ratio to estradiol dosage.
On the same counts, the results for `C[C@]12CC[C@@H]3c4ccc(OC(=O)c5ccccc5)cc4CC[C@H]3[C@@H]1CC[C@@H]2OCCOC(=O)CCCc1ccc(N(CCCl)CCCl)cc1` [Compound I-6, 1-[3-benzoyloxy-1,3,5(10)-estratriene-17β-oxy]-2-[4-[p-[bis (2-chloroethyl)amino]phenyl]-butyryloxy]ethane] are 1500 nM and > 7000 ratio to estradiol dosage.
`C[C@]12CC[C@@H]3c4ccc(OCc5ccccc5)cc4CC[C@H]3[C@@H]1CC[C@@H]2OCCO` [II-1, 2-[3-benzyloxy-1,3,5 (10) -estratriene-17β-oxy]ethanol]: the IC50 came out at 200 nM in the assay on SC-115 cells (setting [3]) and 2900 nM in the assay with DU-145 cells (Homo sapiens, 96 h, DU-145 cells, bFGF 1 ng/ml, 4 days, read-out: IC50). In the assay with uterus, the “Dosage that gives a uterus wt/body wt ratio twice that in control group (ratio to estradiol dosage)” value is listed as 200 ratio to estradiol dosage.
Regarding `Cc1cc(OCc2ccccc2)cc2c1[C@H]1CC[C@]3(C)[C@@H](OCCO)CC[C@H]3[C@@H]1CC2` [II-2, 2-[3-benzyloxy-1,3,5(10) -estratriene-1-methyl-17β-oxy]ethanol], in the assay on SC-115 cells (setting [3]), the IC50 turned out to be 700 nM. The “Dosage that gives a uterus wt/body wt ratio twice that in control group (ratio to estradiol dosage)” value in the assay with uterus is > 7000 ratio to estradiol dosage.
On the same counts, the results for `Cc1cc(OC(=O)c2ccccc2)cc2c1[C@H]1CC[C@]3(C)[C@@H](OCCO)CC[C@H]3[C@@H]1CC2` [II-3, 2-[3-benzoyloxy-1,3,5(10) -estratriene-1-methyl-17β-oxy]ethanol] are 1500 nM and > 7000 ratio to estradiol dosage.
